Results on one molecule are retold here after US20090318502A1, “Pharmaceutical Compositions Comprising a Hypoglycemic Agent and Methods of Using Same” (INTRANASAL THERAPEUTICS, INC., priority 2006, published 2009).

A short description of data set [1]: Storage stability and appearance of intranasal repaglinide formulations. Format: physicochemical. As to conditions: solution pH. Here is the method:
In one embodiment, a composition of the invention comprises at least 85%, at least 87%, at least 90%, at least 92%, at least 95%, at least 97%, or at least 99% of the original hypoglycemic agent (e.g., repaglinide) after storage (closed or open vessel) at 40° C. and 75% relative humidity for a period of at least 1 week, at least 2 weeks, at least 3 weeks, at least 4 weeks, at least 6 weeks, at least 8 weeks, at least 10 weeks, at least 15 weeks, at least 20 weeks, at least 25 weeks, at least 30 weeks, at least 35 weeks, at least 40 weeks, at least 45 weeks, or at least 50 weeks The formulations described in Table 1 below have shown good stability for a period of about one month. In particular, the formulations described in Example 1 below have shown no precipitation and have remained clear and colorless for a period of about one month.

Data set [2] is described as follows: Solubility of repaglinide in formulation vehicles. The class given is physicochemical. As to conditions: in 100% methoxy-polyethylene glycol, 350.

On to `CCOc1cc(CC(=O)N[C@@H](CC(C)C)c2ccccc2N2CCCCC2)ccc1C(=O)O` [repaglinide, Repaglinide], for which, in data set [1], the “pH of solutions in which repaglinide was often more stable” value is recorded as “less than or equal to 9”. Further, the solubility of repaglinide entry in data set [2] is “poorly soluble or insoluble”.
